Experimental data published in PubChem BioAssay (NCI).
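In this assay, cells in 96-well plates receive the compound at five concentrations for 48 hours. Endpoints are linearly interpolated between the surrounding concentrations. GI50 is the concentration that inhibits growth by half. TGI: total growth inhibition.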

What was measured:
Assay in all cases: NCI-60 cell line screen, 48 h
HCT-116 colon = test system: HCT-116 colon
HCT-15 colon = test system: HCT-15 colon
KM12 colon = test system: KM12 colon
MDA-MB-435 = test system: MDA-MB-435
SK-MEL-5 melanoma = test system: SK-MEL-5 melanoma
TK-10 renal = test system: TK-10 renal
A498 renal = test system: A498 renal

Structure (SMILES)	TGI (HCT-116 colon)	TGI (HCT-15 colon)	TGI (KM12 colon)	TGI (MDA-MB-435)	TGI (SK-MEL-5 melanoma)	TGI (TK-10 renal)	GI50 (A498 renal)	TGI (A498 renal)	GI50 (HCT-116 colon)	GI50 (HCT-15 colon)	GI50 (KM12 colon)	GI50 (MDA-MB-435)	GI50 (SK-MEL-5 melanoma)	GI50 (TK-10 renal)
C/C(O)=C(/C=N/C(=S)Nc1ccc(S(N)(=O)=O)cc1)C(=O)Nc1ccccc1C	> 100 µM	> 100 µM	> 100 µM	> 100 µM	> 100 µM	> 100 µM								
O=C1C(Nc2ccc(Cl)cc2)=C(I)C(=O)c2ncccc21	1.18 µM	1.82 µM	11 µM	2.9 µM	2.91 µM	2.94 µM	2.53 µM	13.4 µM	0.305 µM	0.373 µM	1.68 µM	1.43 µM	1.55 µM	1.59 µM
O=C(Nc1cccc(-n2cc(-c3ccncc3)c(-c3ccc(Cl)c(O)c3)n2)c1)Nc1cc(C(F)(F)F)cc(C(F)(F)F)c1	1.24 µM	3.01 µM	1.35 µM	2.07 µM	1.26 µM	2.75 µM	0.595 µM	2.3 µM	0.487 µM	0.591 µM	0.511 µM	0.829 µM	0.604 µM	0.843 µM
COc1cccc(N2C(=O)C3c4[nH]c5ccccc5c4C4CCCC4C3C2=O)c1 (stereo not drawn)	7.16 µM	> 10 µM	> 10 µM	> 10 µM	> 10 µM	> 10 µM		5.1 µM						
CSC1=C(N)C(=O)c2[nH]cc(CO)c2C1=N	0.666 µM	0.382 µM	2.2 µM	0.165 µM	0.164 µM	2.72 µM	0.132 µM	0.269 µM	0.256 µM	0.163 µM	0.418 µM	0.0473 µM	0.0451 µM	1.37 µM
Cc1c(Cl)cccc1C(=O)Nc1nc2c(s1)CN(C(=O)c1ccc(C(F)(F)F)cc1)CC2	> 18.4 µM	21.2 µM	> 50 µM	0.0521 µM	6.01 µM	> 50 µM	0.064 µM	20.9 µM	0.101 µM	0.0295 µM	0.113 µM	0.0154 µM	0.175 µM	0.934 µM
Cc1cc2c(cc1Cl)SC1=NN(C)C(C)N1S2(=O)=O (stereo not drawn)	> 100 µM	> 100 µM	> 100 µM	> 100 µM	> 100 µM	> 100 µM	> 100 µM	> 100 µM	> 100 µM	> 100 µM	> 100 µM	> 100 µM	> 100 µM	> 100 µM
COc1cccc(-c2c[nH]c3c(N/N=C/c4ccncc4)ncnc23)c1	5.36 µM	> 25 µM	4.9 µM	6.9 µM	3.91 µM	20.6 µM	1.96 µM	7.7 µM	1.24 µM	1.46 µM	1.41 µM	1.83 µM	0.809 µM	4.15 µM
NCCCC[C@@H]1NC(=O)[C@H]2CCCN2C(=O)[C@H](Cc2ccccc2)CNC(=O)[C@H](Cc2ccccc2)NC1=O	> 37.5 µM	> 37.5 µM	> 37.5 µM	> 37.5 µM	> 37.5 µM	> 37.5 µM	> 37.5 µM	> 37.5 µM	> 37.5 µM	> 37.5 µM	> 37.5 µM	> 37.5 µM	> 37.5 µM	> 37.5 µM
COc1ccc2c(c1)c(CC(=O)[Se]C)c(C)n2C(=O)c1ccc(Cl)cc1	> 0.543 µM	> 1 µM	> 1 µM	> 0.503 µM	> 0.608 µM	> 0.543 µM	0.269 µM	> 0.561 µM	> 0.204 µM	> 0.506 µM	> 0.577 µM	> 0.231 µM	> 0.434 µM	> 0.347 µM
CCCCOC(=O)N1CCN(/[N+]([O-])=N/Oc2ccc([N+](=O)[O-])cc2[N+](=O)[O-])CC1	3.53 µM	21.4 µM	14.5 µM	16.4 µM	19.8 µM	21.8 µM			2.07 µM	3.99 µM	3.65 µM	4.6 µM	4.91 µM	10 µM
CC1=C(C(=O)Nc2ccc3n[nH]c(C)c3c2)C(c2ccc(C(F)(F)F)cc2)CC(=O)N1 (stereo not drawn)	> 25 µM	> 25 µM	> 25 µM	> 25 µM	> 25 µM	> 25 µM	6.3 µM	> 25 µM	12.5 µM	> 25 µM	14 µM	> 21 µM	> 17.7 µM	14 µM
Nc1ncnc2c1N=C(c1ccc3c(c1)OCO3)CC(c1ccc([N+](=O)[O-])cc1)N2 (stereo not drawn)	> 100 µM	> 100 µM	> 100 µM	> 100 µM	> 100 µM	> 100 µM	25.1 µM	90 µM	18.2 µM	9.55 µM	35.2 µM	62 µM	82.9 µM	80.9 µM
COc1ccc(CCN2CC=Cn3c2nc2ccccc2c3=O)cc1	> 100 µM	> 45.7 µM	> 100 µM		0.154 µM	> 100 µM	0.0203 µM	0.0851 µM	0.0347 µM	0.0185 µM	0.0167 µM		0.0265 µM	40 µM
Cc1ccccc1OCC(O)CN1CCN(c2ccc(Cl)cc2)CC1 (stereo not drawn)	29.3 µM	40.2 µM	36.9 µM	28.8 µM	30.2 µM		11.9 µM	24.6 µM	14.6 µM	19.2 µM	17.8 µM	14.4 µM	16.3 µM	
COc1ccc2c(CN3CCCC[C@H]3C(=O)O)cc3cc4c(cc3c2c1)OCO4		12.7 µM	52.5 µM	4.09 µM	2.5 µM	60.2 µM	1.55 µM	3.06 µM		1.4 µM	3.69 µM	1.05 µM	1.25 µM	5.47 µM
Cc1c(C(=O)Nc2ccccc2)sc2ncn(Cc3cccc(Cl)c3)c(=O)c12	> 100 µM	> 100 µM	> 100 µM	> 100 µM	> 100 µM	> 100 µM			19.2 µM	13.2 µM	99 µM	24.2 µM	25.7 µM	11.7 µM
